Source: patent US20240316023A1, “BENEDIN, PIPERIDINE, 2-BENZHYDRYL-3-HYDROXY-N-METHYL-, HYDROCHLORIDE AND DERIVATIVES THEREOF FOR USE IN TREATING KLEINE-LEVIN SYNDROME” (priority 2021, published 2024)

Test system: Mice, C57BL/6J, male
Assay: Novel object recognition (NOR) test, long-term memory
Format: in vivo
Conditions: for DI Discrimination Index = 100 × (N − F)/(N + F) / N − F Exploration time novel − familiar object: choice trial 72 h post treatment, mean, N = 16; for recognition of the familiar object, i.e. memory: 3-days interval
Experimental: Long-term episodic memory was tested in the NOR test, using a 3-days interval between the acquisition session (called sample trial) and the retention session (called choice trial). This method allows to detect an improvement of memory in the natural forgetting condition:
The test was carried out in circular boxes (30 cm diameter, 40 cm high). The objects to be discriminated (L≈1≈h≈3-4 cm) differed in both color and shape and were referred as yellow duck and blue lego. They were fixed with a magnet to the floor of the boxes at 5 cm of the wall, 20 cm distant. Apparently, they have no natural significance for mice and they have never been associated with a reinforcement. In order to rule out the possibility of scent traces left on the objects and therefore the dependency of the recognition capacity of mice on the olfactory cue, the objects and the ground of the box were washed with an odorless disinfectant (Sanicid® diluted in water) and dried between each trial. A camcorder was fixed to the ceiling above the box to record the animals' activity. The experiment was analyzed blindly at a later time.
On the week before the test, animals were handled by the experimenter in charge of the experiment in order to be not stressed at the time of testing. For this purpose, the experimenter placed a small amount of litter, and then the mouse on its hand. […] The NOR test was completed over five days (see FIG. 1): • Day 1: Habituation trial. Animals were individually placed for a 15-min free exploration session in empty open boxes. • Day 2. Treatment administration and sample trial. […] They were individually placed 30 min after in the apparatus for a 6-min session with two identical objects (Duck, 50% of animals or Lego, 50% of animals). • […]. […]. The mice were individually placed for a 6-min session in the apparatus with two objects (Duck and Lego), one of the objects presented in sample trials (termed as familiar objects) and a novel object (Lego, 50% of animals or Duck, 50% of animals).
The sample and choice trials were recorded with the camera located above the apparatus. The time spent by mice in exploring the objects was measured during the sample trial and the choice trial.
Exploration of an object was defined as follows: directing the nose to the object at a distance≤2 cm and/or touching it with the nose or forelimbs: turning around or biting the object, or sitting on the object were not considered as exploratory behavior.
Data recorded: • L=exploration time of the left object in the sample trial. • R=exploration time of the right object in the sample trial. • N=exploration time of the new object in the choice trial. • F=exploration time of the familiar object in the choice trial. Object recognition task indices include the following parameters: • Exploration indices: • ST=L+R=exploration time (left object+right object) in the sample trial. • CT=N+F=exploration time (new object+familiar object) in the choice trial. • Two memory indices: • N−F=difference of exploration time between the new object and the familiar object in the choice trial.
Statistical analyses: • Read-outs: DI, N−F, ST, CT, N, F • Unpaired Student's t test: Donep 2 group vs. Control group. • One-way ANOVA, Dunnett test: • Benedin groups vs. Control group. • Benedin groups vs. Donep 2 group. • Read-outs: DI and N−F, for all groups, paired Student's t test, difference vs. 0. • Body weight: one-way ANOVA.

Question: `CN1CCCC(O)C1C(c1ccccc1)c1ccccc1` (stereo not drawn) [Benedin, 2-benzhydryl-3-hydroxy-N-methyl-piperidine] was tested. Which “DI Discrimination Index = 100 × (N − F)/(N + F)” value (“DI Discrimination Index = 100 ×” for short) (Benedin 0.1 mg/kg i.p. 30 min before sample trial) did it give?
Answer: The value was “not significantly different from 0”.

Question: And the “DI Discrimination Index = 100 ×” value (Benedin 0.1 mg/kg i.p. 30 min before sample trial, listed as NLS-11)?
Answer: Its value is 12.0.

Question: What about the “recognition of the familiar object, i.e. memory” value (“recognition” for short) (Benedin 0.1 mg/kg i.p.) of the same compound?
Answer: The value was “not significant”.

Question: What about the “N − F Exploration time novel − familiar object” value (Benedin 0.1 mg/kg i.p.) of the same compound?
Answer: Its value is “not significantly different from 0”.

Question: And the “N − F Exploration time novel − familiar object” value (Benedin 0.1 mg/kg i.p., listed as NLS-11)?
Answer: The value was 3.4 s.

Question: What about the “DI Discrimination Index = 100 ×” value (Benedin 0.5 mg/kg i.p. 30 min before sample trial) of the same compound?
Answer: Its value is “significantly higher than 0”.

Question: What about the “DI Discrimination Index = 100 ×” value (Benedin 0.5 mg/kg i.p. 30 min before sample trial, listed as NLS-11) of the same compound?
Answer: Its value is 23.5.

Question: And the “recognition” value (Benedin 0.5 mg/kg i.p.)?
Answer: Its value is “significant”.

Question: What about the “N − F Exploration time novel − familiar object” value (Benedin 0.5 mg/kg i.p.) of the same compound?
Answer: The value was “significantly higher than 0”.

Question: And the “N − F Exploration time novel − familiar object” value (Benedin 0.5 mg/kg i.p., listed as NLS-11)?
Answer: The value was 6.2 s.

Question: And the “DI Discrimination Index = 100 ×” value (Benedin 1 mg/kg i.p. 30 min before sample trial)?
Answer: Its value is “not significantly different from 0”.

Question: And the “DI Discrimination Index = 100 ×” value (Benedin 1 mg/kg i.p. 30 min before sample trial, listed as NLS-11)?
Answer: Its value is 13.0.

Question: And the “recognition” value (Benedin 1 mg/kg i.p.)?
Answer: Its value is “not significant”.

Question: And the “N − F Exploration time novel − familiar object” value (Benedin 1 mg/kg i.p.)?
Answer: Its value is “not significantly different from 0”.

Question: What about the “N − F Exploration time novel − familiar object” value (Benedin 1 mg/kg i.p., listed as NLS-11) of the same compound?
Answer: Its value is 4.0 s.
